Test results published in patent US5872144A, “4-aminoethoxyindazole derivatives” (American Home Products Corporation, priority 1998, dated 1999).

Columns and labels:
[1] = target: T1, dopamine autoreceptor (D2) (Rattus norvegicus, UniProt P61169); assay: 3H-quinpirole (D2 Quin.) binding, homogenized rat striatal brain tissue, affinity for dopamine autoreceptor
T1 construct: homogenized rat striatal brain tissue; from tissue; host or cells: rat striatum, homogenate
Procedure: Affinity for the dopamine autoreceptor was established by a modification of the standard experimental test procedure of Seemen and Schaus, European Journal of Pharmacology 203, 105-109, 1991, wherein homogenized rat striatal brain tissue is incubated with ^3 H-quinpirole (Quin.) and various concentrations of test compound, filtered and washed and counted in a Betaplate scintillation counter.

dopamine D-2 receptor = target: T2, dopamine D-2 receptor (Rattus norvegicus, UniProt P61169); assay: 3H-spiroperidol (D2 Spiper.) binding, homogenized limbic brain tissue
T2 construct: from tissue; host or cells: limbic brain tissue, homogenate
T2 sequence (P61169 whole entry): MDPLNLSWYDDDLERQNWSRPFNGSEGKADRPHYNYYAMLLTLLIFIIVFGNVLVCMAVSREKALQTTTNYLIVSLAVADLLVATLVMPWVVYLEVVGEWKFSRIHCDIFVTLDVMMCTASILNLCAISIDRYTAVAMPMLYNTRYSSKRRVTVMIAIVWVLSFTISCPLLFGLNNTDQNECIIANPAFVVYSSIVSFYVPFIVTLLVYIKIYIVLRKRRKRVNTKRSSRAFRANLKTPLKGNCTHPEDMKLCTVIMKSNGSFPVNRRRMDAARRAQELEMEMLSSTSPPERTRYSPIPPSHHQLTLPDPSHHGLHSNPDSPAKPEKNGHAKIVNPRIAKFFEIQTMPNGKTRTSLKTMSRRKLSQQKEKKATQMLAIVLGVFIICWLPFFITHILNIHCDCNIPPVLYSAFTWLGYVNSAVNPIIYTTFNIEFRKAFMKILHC
Procedure: High affinity for the dopamine D-2 receptor was established by the standard experimental test procedure of Fields, et al., Brain Res., 136, 578 (1977) and Yamamura et al., eds., Neurotransmitter Receptor Binding, Raven Press, N.Y. (1978) wherein homogenized limbic brain tissue is incubated with ^3 H-spiroperidol (Spiper.) and various concentrations of test compound, filtered and washed and shaken with Hydrofluor scintillation cocktail (National Diagnostics) and counted in a Packard 460 CD scintillation counter.

dopamine D2 receptor = assay: Intrinsic activity at the dopamine D2 receptor, ratio LowAg/HighAg; assay type: binding; conditions: D2 Spiper IC50 / D2 Quin. IC50 (LowAg/HighAg)
Description: Efforts to induce antipsychotic activity with dopamine autoreceptor agonists have been successful (Dorsini et al., Adv. Biochem. […] et al., Science, 200, 567-568, 1975; and […] et al., Psychiatry, 398-402, 1986). […] Pharm., 42, 432-438, (1993)]. Intrinsic activity is predicted using the ratio of the "low-affinity agonist" (LowAg) state of the receptor and the "high-affinity agonist" ([…]) state of the receptor, […]. These ratios correlate with the agonist, partial agonist, and antagonist activities of a given compound, which activities characterize a compounds ability to elicit an antipsychotic effect. […] Activation of the dopamine autoreceptors results in reduced neuronal firing a well as inhibition of dopamine synthesis and release and therefore provide a means of controlling hyperactivity of the dopaminergic systems. The compounds of this invention were also found to have high intrinsic activity and therefore they can behave as the natural neurotransmitter i.e. as full agonists. […] Affinity for the dopamine autoreceptor was established by a modification of the standard experimental test procedure of Seemen and Schaus, European Journal of Pharmacology 203, 105-109, 1991, wherein homogenized rat striatal brain tissue is incubated with ^3 H-quinpirole (Quin.) and various concentrations of test compound, filtered and washed and counted in a Betaplate scintillation counter. […]

T1 sequence (P61169 whole entry): as above

Row | Compound | IC50 [1] | IC50 (dopamine D-2 receptor) | Ratio (dopamine D2 receptor)
1 | c1csc(CNCCOc2cccc3[nH]ncc23)c1 [Example 2, [2-(1H-Indazol-4-yloxy)-ethyl]-thiophen-2-ylmethyl-amine] | 4.3 nM | 1090 nM | 254
2 | c1cc(OCCNCc2ccsc2)c2cn[nH]c2c1 [Example 3, [2-(1H-Indazol-4-yloxy)-ethyl]-thiophen-3-ylmethyl-amine] | 2.78 nM |  | 
3 | c1ccc(CNCCOc2cccc3[nH]ncc23)cc1 [Example 1, Benzyl-[2-(1H-indazo-4-yloxy)-ethyl]-amine] | 2.23 nM | 333 nM | 151
